Legend:
ERK = test: VEGF-dependent ERK phosphorylation (western blot); type: cell-based, human; details: HUVECs treated with VEGF (10 min)
HUVEC [1] = test: β-Gal senescence assay; type: cell-based, human; details: for senescence (β-galactosidase positive cells): 48 hours after transfection, relative to controls; for senescence phenotype in old HUVECs: high-passage HUVEC, β-galactosidase assay
Source text: After this time cells were washed whit cold PBS and then stain for β-galactosidase activity following manufacture protocol (Senescence Cells Histochemical Staining Kit, Sigma).

[2] = test system: 3'-UTRs of MRE11a, RAD50, and NBN; test: 3'-UTR luciferase reporter assay in HEK-293T cells; type: cell-based, human; details: 24 hours cotransfection
Experimental: To determine targets of miR-99b and miR-494, the RNAs were ectopically expressed in HUVECs. Targets were analyzed using a DNA damage array 24 hours after transfection. Three common targets for miR-99b and miR-494 were identified: MRE11a, RAD50 and NBN. These three proteins form the MRN complex which is involved in homologous repair and non-homologous end joining. mRNA targets of miR-494 and miR-99b were also assessed using a miR-TRAP assay. […] Finally, the 3′-UTRs of MRE11a, RAD50, and NBN were cloned into luciferase reporter vectors. The luciferase vectors were contrasfected with miR-494 and miR99b into HEK-293T cells for 24 hours.
MRE11a Luciferase-3-UTR plasmid was purchased from SwitchGear Genomics. RAD50 and NBN luciferase constructs were purchased as pmiR-REPORT vector (Ambion). Luciferase assay reagents were purchased from Switch Gear Genomics and Promega.
Cells were transfected at 50-60% confluence using standard forward transfection protocols using RNAimax reagent (Life Technologies) for miRs/siRNAs and Lipofectamine 2000 for plasmid or plasmid RNA dual transfections. Typically 50 nM RNA and […] plasmid DNA were used for transfections. Target protectors were transfected at a concentration of 50 nM or equivalent to the miR amounts.

murine 4T1 tumors = test: Orthotopic 4T1 tumor growth; type: in vivo; details: implanted orthotopically in Balb/C mice
Source text: FIG. 5C is a graph of 4T1 tumor weights on day 21 after orthotopic mammary fat pad implantation of either control or miR-494-3p transfected tumors. N=8 mice per group and * indicates P<0.05.

[3] = test system: Matrigel plugs in nu/nu mice; test: Matrigel plug angiogenesis assay in vivo
Experimental: (§1) Total RNA and microRNA were isolated using miRVana microRNA isolation kit (Ambion). Reverse transcription was performed using TaqMan™ Advanced cDNA Synthesis Kit (Life Tech) according to the manufacture instructions. RT-PCR was performed using multiplexed TaqMan primers (Applied Biosystems). The relative quantification of gene expression was determined using the 2-DDCtmethod. Using this method, we obtained the fold changes in gene expression normalized to an internal control gene, GAPDH or U6 snRNA, respectively. A DNA damage array (LifeTech) was used for targeting analysis and a Human Cellular Senescence array (SA Biosciences) was used for senescence phenotype profiling.
In some experiments, CD31a and Mre11a were visualized using immunofluorescence staining from OCT sections of tumor tissue. Slides were fixed with 4% PFA and stained overnight for CD31, Mre11a, or ASMC. Imaging was performed on a Nikon Spectral C1 confocal microscope (Nikon C1si with EZC1 acquisition software, Nikon Instruments) with Plan Apo 10×/0.45 air, Plan Apo 20×/0.75 air, and Plan Apo 60×/1.40 oil objective lenses (Nikon). Some immunofluorescence imaging was performed on a Yokogawa CSU-W1 spinning disk confocal microscope with 20 0.45 Plan Fluor objective (Nikon). All images were taken with a channel series. Images were analysed with Image J software for quantitation.
Immune-compromised 8-10 week old female nu/nu mice purchased from Jackson Labs. Growth factor reduced Matrigel (BD) with 400 ng ml 1 recombinant human bFGF (Millipore) was injected subcutaneously in nu/nu mice. Mice were injected i.v with 7C1-nanoparticles containing miR-494 or control miR (0.7 mg/kg, i.v) 3 or 4 days after plugs were implanted. At day 7 mice were harvest and lysed to obtained RNA or frozen in OCT for tissue staining.

p21 = test: Western blot of p21 in HUVEC; type: cell-based, human; details: HUVEC expressing the miRNAs
Experimental: (§2) After treatment, cells were washed in phosphate-buffered saline (PBS) and prepared in RIPA lysis buffer (Sigma) supplemented with Complete Protease inhibitor cocktail (ROCHE) and Phosphatase inhibitors cocktail 2 and 3 (Sigma). Cells were harvested by scraping, and proteins were analyzed by Western blot. Equivalent amounts of protein were loaded on a 4-12% gradient SDS-polyacrylamide gel (BioRAD) and transferred for 30 min to a TransBlot turbo (BioRAD) nitrocellulose membrane. Membranes were blocked in 5% milk or 3% BSA and incubated with antibodies as indicated: Mre11a (Cell Signaling, 4847, 1:1000), RAD50 (Cell Signaling, 3427, 1:1000), NBS1 (Cell Signaling, 14956, 1:500), p-ATM (Cell Signaling, 4526, 1:500), H2AX (Abcam 11174, 1:500), p21 (Cell Signaling, 2947, 1:1000), P-Rb (Cell Signaling, 9301, 1:500), ERK1/2 (Cell Signaling, 9102, 1:1000), P-ERK1/2 (9101, 1:1000). β-actin (Sigma, A5316, 1:10,000 1 h RT) was used as housekeeping controls for the total levels of protein loaded. Membranes were washed in TBST and incubated with secondary antibodies from Licor Biosciences were used goat anti mouse 925-68020 (1:15,000) and goat anti rabbit 925-32211 (1:15,000). Blots were scanned on the Licor Odyssey scanner according to manufacturer's instructions.

HUVEC [4] = test: HUVEC cell proliferation assay; type: cell-based, human; details: for proliferation relative to controls: HUVEC, overexpression for 48 hours; for proliferation in old HUVECs: high-passage HUVEC
HUVEC [5] = test: 3-D angiogenic sprouting assay (fibrin bead); type: cell-based; details: 3D-fibrinogen assay, co-culture with human aortic smooth muscle cells
Experimental: Early passage HUVECs were coated on cytodex-3 (GE Healthcare) beads at a density of 10 million cells/40 μl beads and incubated in suspension for 3-4 hours with gentle mixing every hour. They were plated on TC treated 6 well dishes overnight and resuspended in a 2 mg/ml fibrin gel with 200,000 human smooth muscle cells. The gel was allowed to polymerize and complete EGM-2 media was added. Sprouts were visualized from days 3-4 via confocal imaging after overnight incubation with FITC labeled Ulex europaeus lectin (Vector labs). Immunofluorescence imaging was performed on a Yokogawa CSU-W1 spinning disk confocal microscope with 20 0.45 Plan Fluor objective (Nikon).

CD44 = CD44 expression (Human Senescence gene array); type: cell-based; details: HUVEC
Experimental: as §1
CD44 expression was analyzed by flow cytometry in HUVECs transfected with miR-494 for 48 hours. Cells were washed in PBS and tripsinazed. Cells were incubated in blocking solution (0.5% BSA/10% goat serum) for 30 min and 1 hour in primary antibody-PEcy7 conjugated (CD44, BD, 560533) prepared in blocking solution. Then cells were washed in PBS 3×. Cells were analyzed in a CANTOII equipment.

[6] = test system: MRE11a, RAD50, and NBN mRNAs; test: miR-TRAP/RISC TRAP assay; type: cell-based; details: 293 T cells, 24 hours
Experimental: 293 T cells were co-transfected with a plasmid coding for a flag-tagged dominant negative […] mutant (Clontech) along with a control mimic, miR-99b or miR-494 mimic according to kit instructions. Twenty-four hours later the RNA protein complexes were crosslinked and the RISC complex was immunoprecipitated using an anti-FLAG antibody and RNA was isolated for quantitative real-time PCR of target genes. The fold enrichment was calculated using pre and post IP controls as well as normalization to the control mimic pull-downs.

MRE11a, RAD50 and NBN = test: Target validation in HUVEC (Western blot, qPCR); type: cell-based, human; details: qPCR and immunofluorescence
Experimental: as §2, with “Blots were scanned on the Licor Odyssey scanner according to manufacturer's instructions.” left out
Total RNA and microRNA were isolated using miRVana microRNA isolation kit (Ambion). […] The relative quantification of gene expression was determined using the 2-DDCtmethod. […]

HUVEC [7] = test: HUVEC apoptosis; type: cell-based, human; details: overexpression for 48 hours
[8] = test system: telomerase activity in HUVEC; test: Telomerase activity assay; type: cell-based, human; details: 48 hours of ectopic expression
Experimental: […] Cells were lysed and processed according to the manufacturer's instructions (Quantitative Telomerase Detection Kit, Allied Biotech). The telomerase activity in the cell extract was determined through its ability to synthesize telomeric repeats onto an oligonucleotide substrate. The resulting products were subsequently amplified using the polymerase chain reaction (PCR).

breast cancer cell = test: Breast cancer cell proliferation in 2D and 3D assays; type: cell-based; details: ectopic expression
[9] = test system: VEGF-early gene signature; test: VEGF-early response gene expression; type: cell-based, human; details: HUVEC, VEGF 50 ng/ml
Experimental: HUVECs were transfected for a total of 48 hours. At 24 hours cells were starved overnight and then treated 3 hours with VEGF (50 ng/ml). Graphs depict mean mRNA levels+SEM.
as §1

Molecule | phosphorylation of ERK (ERK) | luciferase expression from 3'-UTR reporter vectors [2] | expression of cell cycle regulator p21 (p21) | proliferation relative to controls (HUVEC [4]) | proliferation in old HUVECs (HUVEC [4]) | sprouting angiogenesis (HUVEC [5]) | expression of CD44, a marker of senescence (CD44) | senescence (β-galactosidase positive cells) (HUVEC [1]; HUVEC) | senescence phenotype in old HUVECs (HUVEC [1]) | enrichment of target mRNAs in RISC pulldown relative to controls [6] | protein expression of target mRNAs (MRE11a, RAD50, NBN) (MRE11a, RAD50 and NBN) | apoptosis (HUVEC [7]) | telomerase activity [8] | further results
N=C1NC(=O)/C(=C/c2ccc(O)cc2)S1 [Mirin-1, reference compound] | decreased ERK phosphorylation |  |  |  |  |  |  |  |  |  |  |  |  | senescence (HUVEC [1]; HUVEC, 50 uM, after 24 hours): induce senescence
miR-494: Human miR-494-3p (SEQ ID NO: 1), used as miR mimic; in vivo delivered in 7C1 nanoparticles (sense UGAAACAUACACGGGAAACCUC; delivered in vivo in 7C1 nanoparticles, further chemistry not given here; listed as Homo sapiens) |  | Significantly less luciferase expression | greater expression | less proliferation | without dramatically changing proliferation | inhibited sprouting angiogenesis | induced expression of CD44 | higher number of β-galactosidase positive cells | restored a senescence phenotype | enrichment of all of MRE11a, RAD50, and NBN | Blocking of protein expression | no effect on apoptosis | Impaired telomerase activity | growth of 4T1 tumors (murine 4T1 tumors): decreased the growth; Pecam1 mRNA expression in plugs relative to controls ([3]; Matrigel plugs, 7C1 nanoparticles): lower expression; less CD31 staining relative to controls ([3]; Matrigel plugs, miR delivered with endothelial targeted nanoparticle 7C1, 0.7 mg/kg i.v.): 50%; Mre11a mRNA expression in plugs ([3]; RNA isolated from Matrigel plugs, 7C1 nanoparticles): significantly less Mre11a expression; sprouting angiogenesis (HUVEC [5]; listed as miR-494-3p): inhibit sprouting angiogenesis; senescence (β-galactosidase positive cells) (HUVEC [1]; HUVEC, listed as miR-494-3p): lead to endothelial senescence; telomerase activity ([8]; listed as miR-494-3p): impairing telomerase function; breast cancer cell proliferation (breast cancer cell): diminished breast cancer cell proliferation
miR-99b: Human miR-99b-5p (SEQ ID NO: 3), used as miR mimic (sense CACCCGUAGAACCGACCUUGCG; listed as RNA, chemistry not given here; listed as Homo sapiens) | lower rate of phosphorylation of ERK | Significantly less luciferase expression | greater expression | less proliferation | without dramatically changing proliferation | inhibited sprouting angiogenesis | induced expression of CD44 | higher number of β-galactosidase positive cells | restored a senescence phenotype | only MRE11a was enriched | Blocking of protein expression | no effect on apoptosis | Impaired telomerase activity | sprouting angiogenesis (HUVEC [5]; listed as miR-99b-5p): inhibit sprouting angiogenesis; senescence (β-galactosidase positive cells) (HUVEC [1]; HUVEC, listed as miR-99b-5p): lead to endothelial senescence; telomerase activity ([8]; listed as miR-99b-5p): impairing telomerase function; specific-VEGF-early gene signature [9]: block a specific-VEGF-early gene signature
miR-21-3p: Human miR-21-3p (SEQ ID NO: 2), used as miR mimic (sense CAACACCAGUCGAUGGGCUGU; listed as RNA, chemistry not given here; listed as Homo sapiens) |  |  |  |  |  | inhibit sprouting angiogenesis |  | lead to endothelial senescence |  |  |  |  | impairing telomerase function | 

Reference: US20170362590A1, “PHARMACEUTICAL COMPOSITIONS COMPRISING MICRORNA” (OREGON HEALTH & SCIENCE UNIVERSITY, priority 2016, published 2017)
